Marks after values point to notes of the source that are not given here.
Legend:
[1] = Adverse events after single oral doses, T2DM subjects (Part B); format: in vivo, human; details: for At least one adverse event: n = 6
Protocol: This double-blind, randomized, placebo-controlled, single escalating-dose crossover study was conducted in two parts: Part A consisted of a randomized, dose-escalation in healthy subjects; Part B was of similar design, but conducted in subjects with T2DM and included an evaluation of pharmacodynamics using a 50 g oral glucose tolerance test (OGTT).
Six subjects with T2DM received two doses of remogliflozin etabonate and a placebo dose, in a randomized, dose escalating, crossover design, along with an oral glucose load on three study sessions separated by 7–14 days. Full PK and safety profiles were measured on Day 1 of each dosing period. The doses selected for this portion of the study, 50 mg and 500 mg, were based on data obtained in Part A. In each dosing period, subjects were assigned to active vs placebo in a 2:1 ratio.
All subjects were admitted to the unit two nights prior to receiving study drug to establish baseline safety parameters and fluid intake levels over a 36 h period. Subjects remained in the unit for at least 24 h after doses were administered for monitoring of clinical laboratory parameters exploratory biomarkers, vital signs, ECGs and adverse events. While confined to the clinical research unit, all subjects received meals standardized with respect to calories, fat, protein, carbohydrate, and sodium content; however, detailed dietary information was not captured in this study. In Part A, subjects were dosed following an overnight fast; lunch and dinner were provided at 4 and 10 h after dosing, respectively. Fifteen minutes after dosing in each treatment period in Part B, a fasting OGTT was performed using 50 g glucose (administered as 50 g Glucola™). A 50 g glucose load was chosen since the OGTT was being performed in subjects already known to have diabetes. The glucose drink was consumed by subjects within approximately 5 minutes. Blood samples for the measurement of glucose, insulin, and intact glucagon-like peptide 1 (GLP-1) were collected for 24 hours following dose administration. Provided that there were no safety or tolerability concerns, subjects were released from the clinic on day 2 of each treatment period until their return for the next treatment or follow-up period. Each subject was involved in the study for approximately 8 weeks (from screening to follow-up).

[2] = target: T1, SGLT2 (Homo sapiens, UniProt P31639); assay: 24-h urine glucose excretion, healthy subjects; format: in vivo; details: for Filtered glucose excreted in urine / Urinary glucose excretion: 24-h, healthy subjects, mean (SD)
T1 construct: from tissue; host or cells: kidney (proximal tubule) of living human subjects: healthy volunteers and T2DM patients
T1 sequence (P31639 1-672): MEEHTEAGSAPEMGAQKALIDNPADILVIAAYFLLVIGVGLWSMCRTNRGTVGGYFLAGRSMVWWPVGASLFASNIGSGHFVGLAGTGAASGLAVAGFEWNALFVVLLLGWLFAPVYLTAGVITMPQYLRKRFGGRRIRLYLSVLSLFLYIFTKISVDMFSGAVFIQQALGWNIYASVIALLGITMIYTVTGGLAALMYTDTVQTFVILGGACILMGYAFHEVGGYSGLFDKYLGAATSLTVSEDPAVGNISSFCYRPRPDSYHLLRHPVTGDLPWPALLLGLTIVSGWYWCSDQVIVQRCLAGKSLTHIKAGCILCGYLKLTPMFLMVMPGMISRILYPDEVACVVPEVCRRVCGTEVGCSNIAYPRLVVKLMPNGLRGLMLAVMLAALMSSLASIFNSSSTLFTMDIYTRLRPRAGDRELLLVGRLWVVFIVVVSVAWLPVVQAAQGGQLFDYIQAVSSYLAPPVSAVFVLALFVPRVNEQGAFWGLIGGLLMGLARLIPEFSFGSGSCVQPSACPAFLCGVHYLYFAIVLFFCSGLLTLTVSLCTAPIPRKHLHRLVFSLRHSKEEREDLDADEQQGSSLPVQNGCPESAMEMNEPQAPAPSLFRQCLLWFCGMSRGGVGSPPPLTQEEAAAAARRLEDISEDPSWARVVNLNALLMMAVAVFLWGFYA
Protocol: (§1) Urine samples were collected at pre-dose, and over a series of intervals (0–2, 2–4, 4–6, 6–8, 8–12 and 12–24 h post-dose) for the analysis of creatinine, glucose and electrolytes (Na, K and Cl). All fluid intake was recorded, as well as urine volume, over the 24 hours before and after dosing in each treatment period. Urine was tested for protein on the first morning void of day -1 and 24 h after dosing.
The percentage of filtered glucose excreted in the urine for each individual time period was calculated as the amount of glucose excreted during that time period divided by (CLCR × PG × time interval length), where CLCR is the creatinine clearance for the time interval, PG is the plasma glucose concentration closest to the midpoint of the time interval, and the time interval is the period (min) of urine collection (CLCR × PG represents the glucose filtered load). For the 24-h period, the percentage of filtered glucose excreted was calculated as the amount of glucose excreted over 24 h divided by the sum over the individual time intervals of (CLCR × PG × time interval length).

[3] = Fluid balance, healthy subjects; format: in vivo, human; details: mean (SD)
Protocol: as §1

[4] = Fluid balance, T2DM subjects; format: in vivo, human; details: mean (SD)
Protocol: as §1

[5] = mice; cited from earlier work
[6] = -24 h to pre-dose (baseline before dosing), 50 mg period
[7] = -24 h to pre-dose (baseline before dosing), 500 mg period

Filtered glucose excreted in urine ([2]; 20 mg single dose): 9.0 (2.2) %
Urinary glucose excretion ([2]; 20 mg single dose): 67.1 (17.9) mmol
Filtered glucose excreted in urine ([2]; 50 mg single dose, n = 7): 12.7 (3.7)^b %
Urinary glucose excretion ([2]; 50 mg single dose, n = 7): 96.7 (17.1)^b mmol
Filtered glucose excreted in urine ([2]; 150 mg single dose, n = 7): 25.5 (7.8)^b %
Urinary glucose excretion ([2]; 150 mg single dose, n = 7): 168 (49.4)^b mmol
Filtered glucose excreted in urine ([2]; 500 mg single dose): 34.2 (5.0) %
Urinary glucose excretion ([2]; 500 mg single dose): 223 (49.5) mmol
Filtered glucose excreted in urine ([2]; 1000 mg single dose): 26.4 (11.7) %
Urinary glucose excretion ([2]; 1000 mg single dose): 304 (137) mmol
Total amount of glucose excreted in urine from 0–24 h, dose dependence ([2]; both populations, less than proportional to dose): increased in a dose-dependent manner
Fluid balance (total fluid intake minus total urine volume) ([3]; 0–12 h post-dose, 20 mg): 243 (1161) mL
Fluid balance (total fluid intake minus total urine volume) ([3]; 0–12 h post-dose, 50 mg): -570 (582) mL
Fluid balance (total fluid intake minus total urine volume) ([3]; 0–12 h post-dose, 150 mg): -86 (909) mL
Fluid balance (total fluid intake minus total urine volume) ([3]; 0–12 h post-dose, 500 mg): -159 (531) mL
Fluid balance (total fluid intake minus total urine volume) ([3]; 0–12 h post-dose, 1000 mg): -273 (331) mL
Fluid balance (total fluid intake minus total urine volume) ([3]; 12–24 h post-dose, 20 mg): -581 (387) mL
Fluid balance (total fluid intake minus total urine volume) ([3]; 12–24 h post-dose, 50 mg): -551 (530) mL
Fluid balance (total fluid intake minus total urine volume) ([3]; 12–24 h post-dose, 150 mg): -564 (478) mL
Fluid balance (total fluid intake minus total urine volume) ([3]; 12–24 h post-dose, 500 mg): -424 (334) mL
Fluid balance (total fluid intake minus total urine volume) ([3]; 12–24 h post-dose, 1000 mg): -495(367) mL
Fluid balance (total fluid intake minus total urine volume) ([3]; -24 h to pre-dose (baseline before dosing), 20 mg period): -460 (1311) mL
Fluid balance (total fluid intake minus total urine volume) [3, 6]: -338 (525) mL
Fluid balance (total fluid intake minus total urine volume) ([3]; -24 h to pre-dose (baseline before dosing), 150 mg period): -512 (731) mL
Fluid balance (total fluid intake minus total urine volume) [3, 7]: -278 (1250) mL
Fluid balance (total fluid intake minus total urine volume) ([3]; -24 h to pre-dose (baseline before dosing), 1000 mg period): -126 (798) mL
Fluid balance (total fluid intake minus total urine volume) ([4]; 0–12 h post-dose, 50 mg): -78(433) mL
Fluid balance (total fluid intake minus total urine volume) ([4]; 0–12 h post-dose, 500 mg): -29 (749) mL
Fluid balance (total fluid intake minus total urine volume) ([4]; 12–24 h post-dose, 50 mg): -803 (658) mL
Fluid balance (total fluid intake minus total urine volume) ([4]; 12–24 h post-dose, 500 mg): -1088(679) mL
Fluid balance (total fluid intake minus total urine volume) [4, 6]: -504 (294) mL
Fluid balance (total fluid intake minus total urine volume) [4, 7]: 188 (1879) mL
Fluid balance (total fluid intake minus total urine volume) ([4]; -24 h to pre-dose (baseline before dosing), 500 mg period, listed as remogliflozin etabonate): +188 mL
Structure (SMILES): CCOC(=O)OC[C@H]1O[C@@H](Oc2nn(C(C)C)c(C)c2Cc2ccc(OC(C)C)cc2)[C@H](O)[C@@H](O)[C@@H]1O [Remogliflozin etabonate, remogliflozin etabonate]
Muscle cramp (adverse events reported by >1 subject in total) ([1]; 50 mg single oral dose): 1 (17) n (%)
Nausea (drug-related adverse events) ([1]; 50 mg single oral dose): 0 n (%)
Pain in extremity (drug-related adverse events) ([1]; 50 mg single oral dose): 0 n (%)
β2-microglobulin increased (adverse events reported by >1 subject in total) ([1]; 50 mg single oral dose): 0 n (%)
β2-microglobulin increased (drug-related adverse events) ([1]; 50 mg single oral dose): 0 n (%)
At least one adverse event ([1]; 50 mg single oral dose): 1 (17) n (%)
Muscle cramp (adverse events reported by >1 subject in total) ([1]; 500 mg single oral dose): 0 n (%)
Nausea (drug-related adverse events) ([1]; 500 mg single oral dose): 1 (17) n (%)
Pain in extremity (drug-related adverse events) ([1]; 500 mg single oral dose): 1 (17) n (%)
β2-microglobulin increased (adverse events reported by >1 subject in total) ([1]; 500 mg single oral dose): 2 (33) n (%)
β2-microglobulin increased (drug-related adverse events) ([1]; 500 mg single oral dose): 1 (17) n (%)
At least one adverse event ([1]; 500 mg single oral dose): 2 (33) n (%)
Urinary glucose excretion [5]: concentration-dependent increase

— paper PMC3700763, “First human dose-escalation study with remogliflozin etabonate, a selective inhibitor of the sodium-glucose transporter 2 (SGLT2), in healthy subjects and in subjects with type 2 diabetes mellitus” (BMC Pharmacology & Toxicology, 2013)
